The source made the active and inactive calls. No cut-off for these calls is given here.
Experiments:
Format in all cases: functional
Mus musculus = assay: Antinarcotic activity in morphine-dependent C57BL/6 Mus musculus (mouse) assessed as decrease in naloxane-induced jumping frquency at 20 mg/kg, ip administered QD at 30 min prior to morphine-injection for 7 days followed by naloxane-challenge at 6 hr after last morphine-injection relative to control; set-up: scale not given: the % may be the effect or the level left
Cortical neurone = assay: Neuroprotective activity in ICR Mus musculus (mouse) cortical neurons assessed as protection against glutamate-induced toxicity at 5 to 20 uM after 24 hr by LDH assay
[1] = tested on: Radical scavenging activity; assay: Antioxidant activity assessed as DPPH radical scavenging activity at 1 mM after 25 min by spectrophotometric analysis

**Q.** For `COc1cc(/C=C/C(=O)N2CCN(C(=O)c3ccccc3)CC2)cc(OC)c1OC`, which Activity (Mus musculus; route intraperitoneal) is on record?
**A.** 80%

**Q.** And the Activity (Cortical neurone)?
**A.** Active

**Q.** And the Activity [1]?
**A.** > 20%

**Q.** `COc1cc(/C=C/C(=O)O)cc(OC)c1OC` was tested. Which Activity (Mus musculus) did it give?
**A.** Active

**Q.** What does the source list for `COc1cc(/C=C/C(=O)N2CCOCC2)cc(OC)c1OC`?
**A.** Activity (Mus musculus; route intraperitoneal): 80%; Activity [1]: > 20%

**Q.** For `COc1cc(/C=C/C(=O)NCCCN2CCCC2=O)cc(OC)c1OC`, which Activity (Mus musculus; route intraperitoneal) is on record?
**A.** 80%

**Q.** And the Activity [1]?
**A.** > 20%

**Q.** With `COc1cc(/C=C/C(=O)NCCO)cc(OC)c1OC` as the compound, how does the Activity (Mus musculus; route intraperitoneal) read?
**A.** 80%

**Q.** And the Activity (Cortical neurone)?
**A.** Active

**Q.** What about the Activity [1] of the same compound?
**A.** > 20%

**Q.** `COc1cc(/C=C/C(=O)N2CCN(C(=O)/C=C/c3cc(OC)c(OC)c(OC)c3)CC2)cc(OC)c1OC` was tested. Which Activity (Mus musculus; route intraperitoneal) did it give?
**A.** 80%

**Q.** How did the Activity (Mus musculus; route intraperitoneal) turn out when `COc1cc(/C=C/C(=O)N2CCSCC2)cc(OC)c1OC` was run?
**A.** 80%

**Q.** And the Activity (Cortical neurone)?
**A.** Active

**Q.** What about the Activity [1] of the same compound?
**A.** > 20%

Source: ChEMBL document CHEMBL3044530, “A simple synthesis of trans-3,4,5-trimethoxycinnamamides and evaluation of their biologic activity” (2013)
